The values that follow come from ChEMBL document CHEMBL1201862, “PubChem BioAssay data set” (2004).

Among the test systems are K562; HOP-92; LXFL 529; SK-OV-3; CCRF-CEM; DMS-273; ACHN; SNB-75; EKVX; M14; SNB-19; LOX IMVI; HT-29; SK-MEL-28; UACC-257; HOP-18; NCI/ADR-RES; MCF7; BT-549; DU-145.
Common to all, as to test: growth of human tumour cells (NCI), 48 h

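Growth conditions: 96-well plates. Treatment: test compound, 48 hours, 5 concentrations. Analysis: linear interpolation between bracketing concentrations; unreached endpoints set to highest concentration. GI50 marks 50% less growth.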 Activity calls are given as the source filed them. Rule as the data show it: active = GI50 up to about 1.1 µM and inactive = higher. A value given as a limit tells only on which side of the number the result lay.

Take `COc1ccc2c(c1)C(=O)Cc1ccccc1CC2`: the GI50 in the test on K562, with HOP-92, with LXFL 529, in the test with SK-OV-3, in the test with CCRF-CEM and in the test with DMS-273 was > 100 µM (inactive) each time. Moreover, the GI50 in the test with ACHN was > 100 µM (inactive); with SNB-75, 27.7 µM (inactive); in the test on EKVX, > 100 µM (inactive); in the test with M14, > 100 µM (inactive); in the test on SNB-19 it was > 100 µM (inactive); with LOX IMVI it was > 100 µM (inactive). For the same molecule, the GI50 in the test with HT-29, in the test with SK-MEL-28, with UACC-257 and in the test with HOP-18 was > 100 µM (inactive) each time.

Consider `COc1ccc(-c2cc(O)c3cc4c(cc3n2)OCO4)cc1OC`, for which the GI50 in the test on K562, with HOP-92, in the test on LXFL 529, with SK-OV-3, in the test with CCRF-CEM and in the test on DMS-273 was > 100 µM (inactive) throughout. For the same molecule, the GI50 with ACHN, in the test on SNB-75, with EKVX, in the test on M14, in the test on SNB-19 and with LOX IMVI was > 100 µM (inactive) each time. Besides, the GI50 in the test with HT-29, in the test on SK-MEL-28 and in the test with HOP-18 was > 100 µM (inactive) throughout.

On to `C=C1C(=O)C23[C@H](O)C1CC[C@H]2[C@]12COC3(O)[C@@H](O)[C@@H]1C(C)(C)CC[C@@H]2O`, for which the GI50 with K562 was 3.09 µM (inactive); with HOP-92 it was 3.95 µM (inactive); in the test on LXFL 529, 1.27 µM (inactive); with SK-OV-3 it was 17.1 µM (inactive); in the test with CCRF-CEM, 3.03 µM (inactive); with DMS-273, 13.6 µM (inactive). For the same molecule, the GI50 with ACHN is 16.1 µM (inactive); with SNB-75, 20.4 µM (inactive); in the test with EKVX, 19.7 µM (inactive); with M14, 5.57 µM (inactive); with SNB-19 it was 18.5 µM (inactive); in the test on LOX IMVI, 14.2 µM (inactive). Besides, the GI50 in the test with HT-29 is 14.4 µM (inactive); in the test with SK-MEL-28, 2.72 µM (inactive); with UACC-257, 15.5 µM (inactive); in the test on HOP-18 it was 12.2 µM (inactive).

Consider `OC1C2CCC1C1C3C=CC(C3)C21` (stereo not given), for which the GI50 in the test on K562 was 70.6 µM (inactive); in the test on HOP-92, 34.4 µM (inactive); in the test with LXFL 529, 96.4 µM (inactive); in the test on SK-OV-3, > 100 µM (inactive); with CCRF-CEM it was 39.6 µM (inactive); in the test with DMS-273 it was 94.4 µM (inactive). The GI50 was 95.9 µM (inactive) in the test with ACHN; 46.6 µM (inactive) with SNB-75; > 100 µM (inactive) in the test on EKVX; > 100 µM (inactive) in the test with M14; > 100 µM (inactive) with SNB-19; 86.5 µM (inactive) in the test with LOX IMVI. For the same molecule, the GI50 in the test with HT-29, with SK-MEL-28, in the test with UACC-257 and in the test on HOP-18 was > 100 µM (inactive) in each case.

In the case of `CC(CNCCCNCCNCCCNCO)[N+](=O)[O-]` (stereo not given), the GI50 in the test with K562 is 3.44 µM (inactive); with HOP-92 it was 2.65 µM (inactive); in the test on LXFL 529 it was 3.99 µM (inactive); in the test with SK-OV-3, > 100 µM (inactive); in the test on CCRF-CEM it was 2.75 µM (inactive); in the test on DMS-273, 16.5 µM (inactive). The GI50 in the test with ACHN was 16.7 µM (inactive); in the test with SNB-75, 20.8 µM (inactive); with EKVX, 16 µM (inactive); in the test with M14, 11.4 µM (inactive); in the test with SNB-19 it was > 100 µM (inactive); in the test on LOX IMVI, 14.4 µM (inactive). The GI50 in the test on HT-29 was 21.3 µM (inactive); in the test on SK-MEL-28, 13.6 µM (inactive); with UACC-257, 13.3 µM (inactive); in the test with HOP-18, 14.7 µM (inactive).

Take `COC(=O)/C(=C/c1ccc(OC)cc1)c1cc(OC)c(OC)c(OC)c1`: the GI50 was 0.366 µM (active) in the test on K562; 3.98 µM (inactive) with HOP-92; 3.73 µM (inactive) with LXFL 529; 1.34 µM (inactive) in the test on SK-OV-3; 0.514 µM (active) in the test on NCI/ADR-RES; 1.39 µM (inactive) in the test on CCRF-CEM. Moreover, the GI50 in the test on DMS-273 was 0.746 µM (active); in the test with ACHN, 9.93 µM (inactive); with MCF7, 0.604 µM (active); in the test on SNB-75, 1.29 µM (inactive); with BT-549, 34 µM (inactive); in the test with EKVX, 8.69 µM (inactive). Further, the GI50 is 1.69 µM (inactive) in the test on DU-145; 1.06 µM (active) in the test with M14; 3.62 µM (inactive) in the test on SNB-19; 4.42 µM (inactive) in the test on LOX IMVI; 0.524 µM (active) in the test with HT-29; 5.89 µM (inactive) with SK-MEL-28. The GI50 in the test with UACC-257 was 7.83 µM (inactive); with HOP-18, > 100 µM (inactive).

`CCOC(=O)C1Cc2c(ccc(OC)c2OC)C(=O)C1N` (stereo not given): the GI50 is > 100 µM (inactive) in the test with K562; > 100 µM (inactive) in the test with HOP-92; 94.8 µM (inactive) with LXFL 529; > 100 µM (inactive) in the test with SK-OV-3; > 100 µM (inactive) in the test with CCRF-CEM; > 100 µM (inactive) in the test on DMS-273. Moreover, the GI50 in the test with ACHN was > 100 µM (inactive); with SNB-75, > 100 µM (inactive); in the test with EKVX, 21.5 µM (inactive); in the test on M14 it was > 100 µM (inactive); with SNB-19, > 100 µM (inactive); with LOX IMVI it was > 100 µM (inactive). Further, the GI50 is > 100 µM (inactive) with HT-29, > 100 µM (inactive) in the test on SK-MEL-28, > 100 µM (inactive) in the test on UACC-257 and 97.5 µM (inactive) with HOP-18.
